Measured values as given in patent publication US11192913B2, “C-glycoside amine derivatives and methods of making” (The United States of America, as Represented by the …, priority 2020, dated 2021).
Values after ≈ are worked out from the molar mass of the structure shown. Where two headings read alike, the source gives them in different places.

Columns and labels:
[1] = system: all gram positive organisms tested; settings: against all gram positive organisms tested
Description: (§1) When surfactants are used in detergent formulations, antibiotic activity is an important trait. The antibiotic activity of the surfactants prepared from the saccharides glucose, maltose, and lactose, and 2-undecanone were measured against several microorganisms of interest in the food, human health, and agricultural areas. […] The CMC values for the β-C-glycoside 2-aminoundecanes were 0.1-5.5 mM.
(§2) Summary: β-C-glycoside ketone derivatives of saccharides glucose, lactose, and maltose were converted to amines via a reductive amination using 2 wt % Rh/HMS (Rh/C or Rh/Al2O3 can be used) in ammoniacal methanol under about 500 psi H2 (pressure can be about 350 psi). The amines were isolated and then these molecules were used as the amine in the reductive amination of 2-undecanone prepared from the seed oil of Cuphea. The resulting β-C-glycoside 2-aminoundecanes were characterized by MALDI-TOF mass spectrometry, 2D nmr, and CHN analyses. The detergency of the products was measured by fluorescence detection to measure the critical micelle concentration.

Escherichia coli [2] = test: Antimicrobial activity; assay type: cell-based; settings: gram negative Escherichia
Description: as §1, §2

Envinia amylovora = test: Antimicrobial activity; assay type: cell-based; settings: gram negative Erwinia
Description: as §1, §2

Streptococcus mutans = settings: Watanabe et al. 2000; cited from earlier work
B. cereus = settings: Staron et al. 2018; cited from earlier work
Bacillus subtilis = settings: Zhao et al. 2015; cited from earlier work
Escherichia coli [3] = settings: Zhao et al. 2015; cited from earlier work

## CCCCCCCCCC(C)NC(C)C[C@@H]1O[C@H](CO)[C@@H](O)[C@H](O)[C@H]1O (some centres unmarked) [glucose derivative, Glucose C-glycoside 2-aminoundecane]
[1]
  minimum bactericide concentration: 620 µM (≈ 233 µg/mL)
  minimum inhibitory concentration: 310 µM (≈ 116 µg/mL)
Escherichia coli [2]
  MIC: 620 µM (≈ 233 µg/mL)
Envinia amylovora
  MIC: 620 µM (≈ 233 µg/mL)

## Galactose laurate
Streptococcus mutans
  MIC: 140 µM

## dodecanoyl lactose
B. cereus
  MIC: 5900 µM

## sucrose caprate
Bacillus subtilis
  MIC: 2500 µM
Escherichia coli [3]
  MIC: 10000 µM
